Reference: ChEMBL document CHEMBL5537159, “Discovery and SAR of JTE-151: A Novel RORγ Inhibitor for Clinical Development” (J Med Chem, 2024)

Key:
[1] = Lipophilicity, logD of compound by RP-HPLC analysis; assay type: physicochemical
[2] = Metabolic stability in human liver microsomes assessed as compound remaining at 5 umol/L measured after 60 mins by UPLC/MS analysis; assay type: ADME, Microsome; conditions: dose 5 µmol/L, read-out: Stability
[3] = Apparent permeability in human Caco-2 cells at 25 umol/L incubated for 2 hrs by LC/MS/MS analysis; assay type: ADME, cell-based; conditions: dose 25 µmol/L
[4] = target: T1, Nuclear receptor ROR-gamma (Homo sapiens, UniProt P51449); assay: Inhibition of GAL4 DNA-binding domain fused RORgamma (unknown origin) transfected in CHO-K1 cells incubated for 2 days by luciferase assay; assay type: cell-based
T1 sequence (P51449 whole entry): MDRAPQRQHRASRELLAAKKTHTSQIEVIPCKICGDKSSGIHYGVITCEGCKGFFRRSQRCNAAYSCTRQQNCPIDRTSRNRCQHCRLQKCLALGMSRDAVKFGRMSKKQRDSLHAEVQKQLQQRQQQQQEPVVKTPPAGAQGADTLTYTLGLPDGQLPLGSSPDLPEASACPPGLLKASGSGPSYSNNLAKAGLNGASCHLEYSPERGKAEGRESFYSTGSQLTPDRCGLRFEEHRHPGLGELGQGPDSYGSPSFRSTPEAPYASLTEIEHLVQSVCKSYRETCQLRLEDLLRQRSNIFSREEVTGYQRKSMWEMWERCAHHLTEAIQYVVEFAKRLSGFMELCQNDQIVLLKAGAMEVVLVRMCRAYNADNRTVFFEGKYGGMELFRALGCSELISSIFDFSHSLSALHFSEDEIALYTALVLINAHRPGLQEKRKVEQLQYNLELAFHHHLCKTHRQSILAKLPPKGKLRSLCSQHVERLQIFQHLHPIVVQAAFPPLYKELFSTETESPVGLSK

Compound | logD [1] | remaining at 1 h, 5 µM [2] [%] | Papp at 2 h, 25 µM [3] [×10⁻⁶ cm/s] | EC50 [4] [nM]
Cc1cc(F)ccc1NC(=O)C[C@H](CC(=O)O)c1noc([C@H]2C[C@@H](CC(C)C)C2)c1C1CC1 | 3.9 | 82 | 38 | 64
Cc1ccc(NC(=O)CC(c2nnc([C@H]3C[C@@H](CC(C)C)C3)n2C2CC2)C2CN(C)C2)c(C)c1 (mixture of isomers) | 3.8 | 78 | 0.7 | 6900
Cc1ccc(NC(=O)CC(CC(=O)O)c2nnc([C@H]3C[C@@H](CC(C)C)C3)n2C2CC2)c(C)c1 (mixture of isomers) | 3.2 | 103 | 0.1 | 3000
Cc1ccc(NC(=O)C[C@@H](c2noc([C@H]3C[C@@H](CC(C)C)C3)c2C2CC2)C(C)(C)CC(=O)O)c(C)c1 | 5.2 | 53 | 27.7 | 
Cc1ccc(NC(=O)C[C@H](CC(=O)O)c2noc([C@H]3C[C@@H](CCC(C)C)C3)c2C2CC2)c(C)c1 | 4.7 | 90 | 21.5 | 
CC(=O)N1C[C@H](C(=O)Nc2ccc(C)cc2C)[C@@H](c2nnc([C@H]3C[C@@H](CC(C)C)C3)n2C2CC2)C1 |  | 61 | 19.8 | 
Cc1cccc(NC(=O)C[C@H](CC(=O)O)c2noc([C@H]3C[C@@H](CC(C)C)C3)c2C2CC2)c1C | 4.3 | 67 | 35.5 | 
Cc1ccc(NC(=O)CC(CC(=O)N(C)C)c2nnc([C@H]3C[C@@H](CC(C)C)C3)n2C2CC2)c(C)c1 (mixture of isomers) | 4.3 | 27 | 18.3 | 150
Cc1cc(C)c(C)c(NC(=O)C[C@H](CC(=O)O)c2noc([C@H]3C[C@@H](CC(C)C)C3)c2C2CC2)c1 | 4.5 | 64 | 17 | 63
Cc1cccc(C)c1NC(=O)C[C@H](CC(=O)O)c1noc([C@H]2C[C@@H](CC(C)C)C2)c1C1CC1 | 4.2 | 85 | 39.6 | 
Cc1ccc(NC(=O)C[C@H](Cc2nccs2)c2nnc([C@H]3C[C@@H](CC(C)C)C3)n2C2CC2)c(C)c1 | 4.6 | 69 | 29.4 | < 32
Cc1ccc(NC(=O)C[C@H](CC(=O)O)c2noc([C@H]3C[C@@H](CC(C)C)C3)c2C2CC2)c(C)c1C | 4.4 | 76 | 21.8 | 
Cc1ccc(NC(=O)C[C@H](Cc2nnn[nH]2)c2noc([C@H]3C[C@@H](CC(C)C)C3)c2C2CC2)c(C)c1 | 4.1 | 0 | 21.8 | 63
Cc1ccc(NC(=O)C[C@H](CC(=O)O)c2noc([C@H]3C[C@@H](CC(C)C)C3)c2C2CC2)c(C)c1 | 4.3 | 78 | 40.6 | 
CCC(CC)C[C@H]1C[C@@H](c2onc([C@@H](CC(=O)O)CC(=O)Nc3ccc(C)cc3C)c2C2CC2)C1 | 4.9 | 88 | 13.6 | 
C=C(C)c1c([C@@H](CC(=O)O)CC(=O)Nc2ccc(C)cc2C)noc1[C@H]1C[C@@H](CC(C)C)C1 | 4.3 | 54 | 27.6 | 1200
Cc1ccc(NC(=O)C[C@H](OCC(=O)O)c2noc([C@H]3C[C@@H](CC(C)C)C3)c2C2CC2)c(C)c1 | 3.8 | 64 | 24.9 | 
Cc1ccc(NC(=O)CC(Cc2nnn[nH]2)c2nnc([C@H]3C[C@@H](CC(C)C)C3)n2C2CC2)c(C)c1 (mixture of isomers) | 3.1 | 91 | 0.2 | 6000

Compound | logD [1] | remaining at 1 h, 5 µM [2] [%] | Papp at 2 h, 25 µM [3] [×10⁻⁶ cm/s] | EC50 [4] [nM]
CCc1c([C@@H](CC(=O)O)CC(=O)Nc2ccc(C)cc2C)noc1[C@H]1C[C@@H](CC(C)C)C1 | 4.2 | 68 | 37.9 | 
Cc1ccc(NC(=O)C[C@H](CC(=O)O)c2noc([C@H]3C[C@@H](CC(C)(C)C)C3)c2C2CC2)c(C)c1 (mixture of isomers) | 4.5 | 82 | 24.6 | 29
Cc1ccc(NC(=O)CCc2nnc([C@H]3C[C@@H](CC(C)C)C3)n2C2CC2)c(C)c1 | 4.4 | 39 |  | 
CC(C)C[C@H]1C[C@@H](c2onc([C@@H](CC(=O)O)CC(=O)Nc3ccc(F)cc3Cl)c2C2CC2)C1 | 4.3 | 74 | 33.5 | 
Cc1ccc(NC(=O)C[C@H](Cc2ccc(C(=O)O)cc2)c2noc([C@H]3C[C@@H](CC(C)C)C3)c2C2CC2)c(C)c1 (mixture of isomers) | 4.7 | 67 | 14.3 | 
Cc1ccc(NC(=O)C[C@H](CC(=O)O)c2noc([C@H]3C[C@@H](CC(C)C)C3)c2C2CC2)cc1C | 4.5 | 65 | 32.4 | 
Cc1ccc(NC(=O)C[C@H](CC(=O)O)c2noc([C@H]3C[C@@H](CC(C)C)C3)c2C2CC2)c(F)c1 | 4.2 | 67 | 33.1 | 
Cc1ccc(NC(=O)C[C@H](CCC(=O)O)C(=O)N(C[C@H]2C[C@@H](CC(C)(C)C)C2)C2CC2)c(Cl)c1 (mixture of isomers) | 4.5 | 73 | 30.6 | 
Cc1ccc(NC(=O)C[C@H](c2nnc([C@H]3C[C@@H](CC(C)C)C3)n2C2CC2)[C@H]2C[C@@H](O)C2)c(C)c1 | 4.1 | 0 | 15.2 | 
Cc1ccc(NC(=O)C[C@H](CC(=O)O)c2noc([C@H]3C[C@@H](C(C)(C)C(C)C)C3)c2C2CC2)c(C)c1 | 4.7 | 60 | 23.6 | 
CCC(C)(C)C[C@H]1C[C@@H](c2onc([C@@H](CC(=O)O)CC(=O)Nc3ccc(C)cc3C)c2C2CC2)C1 | 5 | 65 | 22.5 | 
Cc1ccc(NC(=O)C[C@H](C[C@H]2C[C@@H](C(=O)O)C2)c2noc([C@H]3C[C@@H](CC(C)C)C3)c2C2CC2)c(C)c1 | 5.1 | 69 | 20.9 | 
Cc1cc(C)c(NC(=O)C[C@H](CC(=O)O)c2noc([C@H]3C[C@@H](CC(C)C)C3)c2C2CC2)cc1C | 4.6 | 78 | 32 | 
Cc1ccc(NC(=O)CC(CCC(=O)O)c2ncnc([C@H]3C[C@@H](CC(C)(C)C)C3)c2C2CC2)c(Cl)c1 (mixture of isomers) |  | 52 | 20.7 | 16
Cc1ccc(NC(=O)C[C@H](CCC(=O)O)c2noc([C@H]3C[C@@H](CC(C)C)C3)c2C2CC2)c(C)c1 | 4.7 | 61 | 31.4 | 
Cc1cc(C)cc(NC(=O)C[C@H](CC(=O)O)c2noc([C@H]3C[C@@H](CC(C)C)C3)c2C2CC2)c1 | 4.5 | 52 | 33.7 | 
Cc1ccc(NC(=O)C[C@H](CCC(=O)O)n2ncc([C@H]3C[C@@H](CC(C)(C)C)C3)c2C2CC2)c(Cl)c1 | 5 | 42 | 14.5 | 
Cc1ccc(NC(=O)C[C@H](CC(=O)O)c2noc([C@H]3C[C@@H](CCC(C)(C)C)C3)c2C2CC2)c(C)c1 | 5 | 61 | 22.8 | 
